Data taken from patent publication US5686486A, “4-hydroxy-benzopyran-2-ones and 4-hydroxy-cycloalkyl[b]pyran-2-ones useful to treat retroviral infections” (priority 1995, dated 1997).
pKi: −log10 of the molar value.

Tests used:
[1] = biological target: T1, HIV-1 protease (Human immunodeficiency virus type 1 group M subtype B, UniProt P04585); experiment: biochemical; conditions: read-out: HIV-1 FITC KI
In short: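 Enzyme (40 nM stock) and substrate (200 μM stock) incubated with inhibitor, 24–48 two-fold serial concentrations, for 90 min at room temperature, then quenched with avidin beads. Nonlinear least-squares analysis gives Ki; a known-Ki inhibitor validates each run.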

[2] = biological target: T1, HIV-1 protease; experiment: biochemical; conditions: for inhibition at 0.123 µM: read-out: HIV-1 Protease % Inhib, dose 0.123 uM; for inhibition at 0.37 µM: read-out: HIV-1 Protease % Inhib, dose 0.370 uM; for inhibition at 1.1 µM: read-out: HIV-1 Protease % Inhib, dose 1.100 uM; for inhibition at 3.3 µM: read-out: HIV-1 Protease % Inhib, dose 3.300 uM; for inhibition at 10 µM: read-out: HIV-1 Protease % Inhib, dose 10.000 uM; for inhibition at 30 µM: read-out: HIV-1 Protease % Inhib, dose 30.000 uM
In short: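 Percent inhibition derived from fluorescent cleavage product separated by filtration after streptavidin-bead capture of intact biotin/FITC substrate. Reaction: enzyme (10 μl, 0.1 μM stock) with substrate (20 μl, 0.2 μM stock) and compound, 1 h at room temperature in dark, pH 5.5 acetate buffer with 1.0 M NaCl and 0.05% NP-40.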

SMILES: O=c1oc2c(c(O)c1C(c1cccc(NS(=O)(=O)CCc3ccccc3)c1)C1CC1)CCCCCC2 (stereo not shown) [Example 346, N-[3-[Cyclopropyl(5,6,7,8,9,10-hexahydro-4-hydroxy-2-oxo-2H-cycloocta[b]pyran-3-yl)methyl]phenyl]-benzeneethanesulfonamide]
- pKi [1]: 8.41
- inhibition at 0.123 µM [2]: 75.1%
- inhibition at 0.37 µM [2]: 92.5%
- inhibition at 1.1 µM [2]: 97.3%
- inhibition at 3.3 µM [2]: 102%
- inhibition at 10 µM [2]: 103%
- inhibition at 30 µM [2]: 97%

SMILES: O=c1oc2c(c(O)c1C(c1cccc(NS(=O)(=O)c3ccc(-c4ccon4)s3)c1)C1CC1)CCCCCC2 (stereo not shown) [Example 347, N-[3-[Cyclopropyl(5,6,7,8,9,10-hexahyro-4-hydroxy-2-oxo-2H-cycloocta[b]pyran-3-yl)methyl]phenyl]-5-(3-isoxazolyl)-2-thiophenesulfonamide]
- pKi [1]: 8.60
- inhibition at 0.123 µM [2]: 79.8%
- inhibition at 0.37 µM [2]: 92.2%
- inhibition at 1.1 µM [2]: 103%
- inhibition at 3.3 µM [2]: 100%
- inhibition at 10 µM [2]: 102%
- inhibition at 30 µM [2]: 103%

SMILES: O=c1oc2c(c(O)c1C(c1cccc(NS(=O)(=O)c3ccc(NO)cc3)c1)C1CC1)CCCCCC2 (stereo not shown) [Example 348 (Second Title Compound), N-[3-[cyclopropyl(5,6,7,8,9,10-hexahydro-4-hydroxy-2-oxo-2H-cycloocta[b]pyran-3-yl)methyl]phenyl]4-(hydroxyamino)-benzenesulfonamide]
- pKi [1]: 8.77
- inhibition at 0.123 µM [2]: 38.6%
- inhibition at 0.37 µM [2]: 81%
- inhibition at 1.1 µM [2]: 102%
- inhibition at 3.3 µM [2]: 109%
- inhibition at 10 µM [2]: 113%
- inhibition at 30 µM [2]: 98.7%

SMILES: O=c1oc2c(c(O)c1C(c1cccc(NS(=O)(=O)c3ccc(NS(=O)(=O)c4ccccc4)cc3)c1)C1CC1)CCCCCC2 (stereo not shown) [Example 349, N-[3-[Cyclopropyl(5,6,7,8,9,10-hexahydro-4-hydroxy-2-oxo-2H-cycloocta[b]pyran-3-yl)methyl]phenyl]4-[(phenylsulfonyl)amino]-benzenesulfonamide]
- pKi [1]: 7.47
- inhibition at 0.37 µM [2]: 38.4%
- inhibition at 1.1 µM [2]: 69%
- inhibition at 3.3 µM [2]: 86.4%
- inhibition at 10 µM [2]: 96.7%
- inhibition at 30 µM [2]: 88.5%

SMILES: O=c1oc2c(c(O)c1C(c1cccc(NS(=O)(=O)c3cccc(NS(=O)(=O)c4ccccc4)c3)c1)C1CC1)CCCCCC2 (stereo not shown) [Example 350, N-[3-[Cyclopropyl(5,6,7,8,9,10-hexahydro-4-hydroxy-2-oxo-2H-cycloocta[b]pyran-3-yl)methyl]phenyl]-3-[(phenylsulfonyl)amino]-benzenesulfonamide]
- pKi [1]: 8.18
- inhibition at 0.123 µM [2]: 22.2%
- inhibition at 0.37 µM [2]: 64.3%
- inhibition at 1.1 µM [2]: 82.2%
- inhibition at 3.3 µM [2]: 98.3%
- inhibition at 10 µM [2]: 102%
- inhibition at 30 µM [2]: 101%

SMILES: O=C(Nc1cccc(S(=O)(=O)Nc2cccc(C(c3c(O)c4c(oc3=O)CCCCCC4)C3CC3)c2)c1)c1ccccc1 (stereo not shown) [Example 351, N-[3-[[[3-[Cyclopropyl(5,6,7,8,9,10-hexahydro4-hydroxy-2-oxo-2H-cycloocta[b]pyran-3-yl)methyl]phenyl]amino]sulfonyl]phenyl]-benzamide]
- pKi [1]: 7.79
- inhibition at 0.123 µM [2]: 11.2%
- inhibition at 0.37 µM [2]: 49.3%
- inhibition at 1.1 µM [2]: 76.6%
- inhibition at 3.3 µM [2]: 93.9%
- inhibition at 10 µM [2]: 97.8%
- inhibition at 30 µM [2]: 95.8%

SMILES: CN(C)c1ccc(S(=O)(=O)Nc2cccc(C(c3c(O)c4c(oc3=O)CCCCCC4)C3CC3)c2)cc1 (stereo not shown) [Example 352, N-[3-[Cyclopropyl(5,6,7,8,9,10-hexahydro-4-hydroxy-2-oxo-2H-cycloocta[b]pyran-3-yl)methyl]phenyl]-4-(dimethylamino)-benzenesulfonamide]
- pKi [1]: 8.55
- inhibition at 0.123 µM [2]: 49.7%
- inhibition at 0.37 µM [2]: 78.5%
- inhibition at 1.1 µM [2]: 97.9%
- inhibition at 3.3 µM [2]: 104%
- inhibition at 10 µM [2]: 102%
- inhibition at 30 µM [2]: 94.6%

SMILES: Nc1cccc(S(=O)(=O)Nc2cccc(C(c3c(O)c4c(oc3=O)CCCCCC4)C3CC3)c2)c1 (stereo not shown) [Example 353 (First Title Compound), 3-Amino-N-[3-[cyclopropyl(5,6,7,8,9,10-hexahydro-4-hydroxy-2-oxo-2H-cycloocta[b]pyran-3-yl)methyl]phenyl]-benzenesulfonamide]
- pKi [1]: 8.65
- inhibition at 0.123 µM [2]: 48.6%
- inhibition at 0.37 µM [2]: 83.1%
- inhibition at 1.1 µM [2]: 92.7%
- inhibition at 3.3 µM [2]: 97.3%
- inhibition at 10 µM [2]: 103%
- inhibition at 30 µM [2]: 92.9%
